From patent publication US20140249214A1 (AMARIN PHARMACEUTICALS IRELAND LIMITED, priority 2013, published 2014)

Key:
[1] = Phase 1 open-label crossover drug-drug interaction study: pharmacokinetics of warfarin with or without ethyl eicosapentaenoate; conditions: for AUC0-inf LSGM (least squares geometric mean) / Cmax LSGM (least squares geometric mean): W = warfarin (25 mg) administered alone; for effect of co-administration with ethyl eicosapentaenoate on Tmax: compared with Tmax when administered alone; for AUC0-inf / AUC0-last / Cmax / Tmax / Kel: plasma
Description: Twenty-five out of the twenty-six enrolled subjects completed the study. One enrolled subject withdrew consent and disconsinuted prematurely. […] On each of Day 8 through Day 35, all subjects received about 4 g of ethyl eicosapentaenoate (oral) as described herein.

[2] = tested on: international normalized ratio (INR); assay: Phase 1 drug-drug interaction study: anticoagulation pharmacodynamics of warfarin (INR); assay type: in vivo, healthy subjects; parameters: AUCINR Mean (SD) / AUCINR Median / AUCINR LSGM: unit not given beside the values
Description: Primary anticoagulation pharmacodynamic endpoints were maximum international normalized ratio (INRmax) and plasma international normalized ratio time curve (AUCINR).

[3] = warfarin 25 mg + ethyl eicosapentaenoate 4 g
[4] = least squares geometric mean, mixed models

SMILES	AUC0-inf LSGM (least squares geometric mean) [1]	Cmax LSGM (least squares geometric mean) [1]	effect of co-administration with ethyl eicosapentaenoate on Tmax [1]	AUC0-inf ([1]; oral warfarin 25 mg alone)	AUC0-last ([1]; oral warfarin 25 mg alone)	Cmax ([1]; oral warfarin 25 mg alone)	Tmax ([1]; oral warfarin 25 mg alone)	AUC0-inf [1, 3]	AUC0-last [1, 3]	Cmax [1, 3]	Kel [1, 3]	Tmax [1, 3]	other results
CC(=O)C[C@H](c1ccccc1)c1c(O)c2ccccc2oc1=O [R-Warfarin, R-warfarin]	80,486 ng · h/mL	1659.6 ng/mL	did not significantly affect	82,620 (19,725) ng · h/mL	77,539 (17,374) ng · h/mL	1766 (673) ng/mL	1.0 (0.5, 9.0) h	82,460 (22,798) ng · h/mL	77,117 (19,505) ng · h/mL	1865 (592) ng/mL	0.016 (0.005) 1/h	1.0 (0.5, 1.5) h	–
CC(=O)C[C@@H](c1ccccc1)c1c(O)c2ccccc2oc1=O [S-Warfarin, S-warfarin]	58,344 ng · h/mL	1715.9 ng/mL	did not significantly affect	60,216 (15,009) ng · h/mL	59,253 (15,429) ng · h/mL	1836 (729) ng/mL	1.0 (0.5, 9.0) h	60,253 (16,204) ng · h/mL	59,134 (16,451) ng · h/mL	1973 (616) ng/mL	0.020 (0.005) 1/h	1.0 (0.5, 1.5) h	Kel ([1]; oral warfarin 25 mg alone): 0.020 (0.005) 1/h
CC(=O)CC(c1ccccc1)c1c(O)c2ccccc2oc1=O (stereo not drawn) [Warfarin, warfarin]	–	–	–	–	–	–	–	–	–	–	–	–	AUCINR, concomitant vs warfarin alone ([2]; in vivo): similar; INRmax, concomitant vs warfarin alone ([2]; in vivo): similar; AUCINR LSGM [2, 4]: 216.2; INRmax LSGM [2, 4]: 1.80; Median time to INRmax (TINRmax), co-administered vs warfarin alone ([2]; p=0.026): significantly lower; TINRmax Median ([2]; time to INRmax, warfarin 25 mg, EPA 4 g): 48.0 h; AUCINR Mean (SD) ([2]; warfarin 25 mg, EPA 4 g): 217.8 (27.7); AUCINR Median ([2]; warfarin 25 mg, EPA 4 g): 213.4; INRmax Mean (SD) ([2]; warfarin 25 mg, EPA 4 g): 1.86 (0.48); INRmax Median ([2]; warfarin 25 mg, EPA 4 g): 1.74
CC/C=C\C/C=C\C/C=C\C/C=C\C/C=C\CCCC(=O)OCC [ethyl eicosapentaenoate, all-cis eicosa-5,8,11,14,17-pentaenoic acid ethyl ester]	–	–	–	–	–	–	–	–	–	–	–	–	anticoagulation pharmacodynamic effects compared to warfarin alone ([2]; in vivo): did not have an effect
